The record followed here is ChEMBL document CHEMBL1136973, “Structure-activity relationships of heteroaromatic esters as human rhinovirus 3C protease inhibitors” (Bioorg Med Chem Lett, 2009).

Active and inactive are the calls of the source. No cut-off for these calls is given here.

For assay [1], the target named is Replicase polyprotein 1ab (Severe acute respiratory syndrome-related coronavirus, UniProt P0C6X7). Put plainly: Inhibition of SARS coronavirus isolate Tor2 3C-like protease by FRET assay.
Assay [2] deals with Genome polyprotein (rhinovirus A16) (UniProt Q82122). Put plainly: Inhibition of HRV-16 protease 3C expressed in Escherichia coli BL21(DE3) at 1 uM by FRET assay.
Sequence of Genome polyprotein (rhinovirus A16) (Q82122 whole entry): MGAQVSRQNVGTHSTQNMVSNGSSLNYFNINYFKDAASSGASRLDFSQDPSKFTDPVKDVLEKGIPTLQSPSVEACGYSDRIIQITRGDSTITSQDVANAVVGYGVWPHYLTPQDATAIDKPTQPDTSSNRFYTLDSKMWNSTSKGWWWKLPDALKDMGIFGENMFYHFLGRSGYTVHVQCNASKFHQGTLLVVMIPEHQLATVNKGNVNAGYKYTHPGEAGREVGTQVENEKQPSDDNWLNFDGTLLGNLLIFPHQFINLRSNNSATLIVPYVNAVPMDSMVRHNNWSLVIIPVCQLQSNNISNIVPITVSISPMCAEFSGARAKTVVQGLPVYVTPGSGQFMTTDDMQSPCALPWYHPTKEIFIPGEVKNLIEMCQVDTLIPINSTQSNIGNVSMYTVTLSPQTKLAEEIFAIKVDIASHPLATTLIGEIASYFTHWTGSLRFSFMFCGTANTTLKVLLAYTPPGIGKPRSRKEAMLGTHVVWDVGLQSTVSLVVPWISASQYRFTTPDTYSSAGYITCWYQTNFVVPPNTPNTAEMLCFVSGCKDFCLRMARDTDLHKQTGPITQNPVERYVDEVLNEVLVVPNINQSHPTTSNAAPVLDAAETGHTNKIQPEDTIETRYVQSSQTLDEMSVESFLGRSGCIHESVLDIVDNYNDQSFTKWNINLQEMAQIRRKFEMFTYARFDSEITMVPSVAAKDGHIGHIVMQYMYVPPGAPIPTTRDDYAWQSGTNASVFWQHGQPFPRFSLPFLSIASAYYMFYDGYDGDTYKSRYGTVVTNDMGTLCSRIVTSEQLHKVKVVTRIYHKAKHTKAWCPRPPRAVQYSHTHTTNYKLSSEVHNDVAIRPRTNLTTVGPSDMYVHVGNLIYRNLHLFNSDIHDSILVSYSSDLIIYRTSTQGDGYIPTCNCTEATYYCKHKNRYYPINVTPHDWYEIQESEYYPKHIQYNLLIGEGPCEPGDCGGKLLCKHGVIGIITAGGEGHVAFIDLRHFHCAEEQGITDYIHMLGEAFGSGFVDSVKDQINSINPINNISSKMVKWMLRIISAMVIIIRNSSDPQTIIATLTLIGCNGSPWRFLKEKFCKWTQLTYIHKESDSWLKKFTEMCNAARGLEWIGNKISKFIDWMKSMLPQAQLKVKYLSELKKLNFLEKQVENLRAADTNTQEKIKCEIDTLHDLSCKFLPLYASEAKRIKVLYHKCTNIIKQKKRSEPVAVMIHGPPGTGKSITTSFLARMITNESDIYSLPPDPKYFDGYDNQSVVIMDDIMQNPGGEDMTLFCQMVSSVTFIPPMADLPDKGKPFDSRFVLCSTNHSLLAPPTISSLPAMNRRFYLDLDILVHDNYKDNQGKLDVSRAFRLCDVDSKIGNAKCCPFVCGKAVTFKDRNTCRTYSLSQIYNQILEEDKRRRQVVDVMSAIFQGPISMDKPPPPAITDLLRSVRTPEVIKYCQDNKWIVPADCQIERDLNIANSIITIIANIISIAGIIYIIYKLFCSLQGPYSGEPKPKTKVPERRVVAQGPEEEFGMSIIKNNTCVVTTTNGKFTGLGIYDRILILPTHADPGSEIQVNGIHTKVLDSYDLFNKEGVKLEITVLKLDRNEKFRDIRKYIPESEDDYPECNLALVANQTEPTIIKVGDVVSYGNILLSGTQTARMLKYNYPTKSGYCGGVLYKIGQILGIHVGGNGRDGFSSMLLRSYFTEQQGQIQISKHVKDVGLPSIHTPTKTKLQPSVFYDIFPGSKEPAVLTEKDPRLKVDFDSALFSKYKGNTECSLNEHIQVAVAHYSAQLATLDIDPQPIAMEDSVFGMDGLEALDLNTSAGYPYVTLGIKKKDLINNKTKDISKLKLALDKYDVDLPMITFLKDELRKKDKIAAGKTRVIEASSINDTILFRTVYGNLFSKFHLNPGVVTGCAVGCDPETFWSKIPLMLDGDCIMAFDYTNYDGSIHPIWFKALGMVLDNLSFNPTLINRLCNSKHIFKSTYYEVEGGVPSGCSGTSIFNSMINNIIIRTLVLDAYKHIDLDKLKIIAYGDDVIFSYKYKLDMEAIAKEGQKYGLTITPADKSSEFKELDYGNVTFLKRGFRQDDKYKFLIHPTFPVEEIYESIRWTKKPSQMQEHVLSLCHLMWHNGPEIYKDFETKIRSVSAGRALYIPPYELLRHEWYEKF
Assay [3] concerns the target Genome polyprotein (rhinovirus A16, UniProt Q82122). Nature of the assay: Inhibition of HRV-16 protease 3C expressed in Escherichia coli BL21(DE3) by FRET assay.
Assay [4] deals with Genome polyprotein (rhinovirus A16) (UniProt Q82122). Nature of the assay: Inhibition of HRV-16 protease 3C expressed in Escherichia coli BL21(DE3) at 10 uM by FRET assay.

Sequence of Genome polyprotein (Q82122 1511-1693 limits assumed): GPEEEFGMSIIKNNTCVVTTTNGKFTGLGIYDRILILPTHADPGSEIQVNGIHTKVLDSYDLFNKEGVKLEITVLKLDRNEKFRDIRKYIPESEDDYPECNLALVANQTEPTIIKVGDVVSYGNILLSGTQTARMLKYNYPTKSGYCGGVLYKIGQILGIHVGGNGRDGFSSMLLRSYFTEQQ

As a reminder, the IC50 is the concentration needed to halve the response being measured. For the compound `O=C(Oc1cccnc1)c1cccs1`, the IC50 in assay [1] was found to be 500 nM.

As a reminder, the inhibition is the percentage by which the read-out fell short of the control. `O=C(Oc1cccnc1)c1ccco1` yielded an inhibition in assay [2] of 8%.

As for `O=C(Oc1cccnc1C(=O)O)c1ccco1`, the inhibition result in assay [2] was “inactive”.

As to `Cc1cc(C(=O)Oc2cncc(Cl)c2)no1`, the inhibition result in assay [2] is “inactive”.

In turn, `O=C(Oc1cncc(Cl)c1)c1ccc(-c2ccc(Cl)cc2)o1` returned an inhibition in assay [2] of 89%.

For the compound `O=C(Oc1cc(=O)[nH]c2ccccc12)c1ccco1`, in assay [2], the inhibition was 98%. It took 200 nM to reach half-maximal inhibition in assay [3] (IC50).

Take `O=C(Oc1ccncc1)c1ccco1`: in assay [2], the inhibition result is “inactive”.

As to `O=C(Oc1cncc(Cl)c1)c1cccc2ccccc12`, in assay [2], the inhibition is 75%.

`O=C(Oc1cncc(Cl)c1)c1ccc(-c2ccc([N+](=O)[O-])cc2)o1` displayed an inhibition in assay [2] of 60%.

For the compound `CCOc1nc(-c2ccccc2)oc1C(=O)Oc1cncc(Cl)c1`, the inhibition result in assay [2] was “inactive”.

`O=C(Oc1cncc(Cl)c1)c1ccccc1`: the inhibition in assay [2] was 59%.

In turn, `NC(=O)c1cccc(OC(=O)c2ccco2)c1` yielded an inhibition in assay [2] of 5%.

`O=C(Oc1cncc(Cl)c1)c1c[nH]cn1`: in assay [2], the inhibition turned out to be 82%.

In assay [2], `CCOc1nc(-c2ccc3ccccc3c2)oc1C(=O)Oc1cncc(Cl)c1` displayed an inhibition of 34%.

In the case of `NC(=O)c1ccc(OC(=O)c2ccco2)cc1`, the inhibition in assay [2] came out at 5%; in assay [4], 21%.

For the compound `Nc1ncccc1OC(=O)c1ccco1`, the inhibition in assay [2] was 24%.

`CCOc1nc(/C=C/c2ccccc2)oc1C(=O)Oc1cncc(Cl)c1` gave an inhibition in assay [2] of 87%. In assay [3], this compound yielded an IC50 of 690 nM.

`CCOc1nc(C(c2ccccc2)c2ccccc2)oc1C(=O)Oc1cncc(Cl)c1`: the inhibition in assay [2] is 5%.

For `CCOc1nc(Cc2ccccc2)oc1C(=O)Oc1cncc(Cl)c1`, the inhibition in assay [2] came to 5%.

`NC(=O)c1ncccc1OC(=O)c1ccco1` showed an inhibition in assay [2] of 14%.

`O=C(CCc1ccccc1)Oc1cncc(Br)c1`: the inhibition in assay [2] stood at 34%.

Compound `O=C(Oc1cncc(Cl)c1)c1ccc2ccccc2c1` displayed an inhibition in assay [2] of 80%. This compound also registered an IC50 in assay [3] of 710 nM.

In turn, `O=C(/C=C/c1ccccc1)Oc1cncc(Br)c1` gave an inhibition in assay [2] of 63%.

`O=C(Oc1cncc(Cl)c1)c1cccs1`: the inhibition in assay [2] was 64%.

`O=C(Oc1cncc(Cl)c1)c1ccc(-c2ccccc2)o1` displayed an inhibition in assay [2] of 80%.

Consider `O=C(Oc1cccnc1O)c1ccco1`, for which the inhibition entry in assay [2] is “inactive”.

In turn, `Cc1ccc(-c2ccc(C(=O)Oc3cncc(Cl)c3)o2)cc1` yielded an inhibition in assay [2] of 79%.

Compound `O=C(Oc1cncc(Cl)c1)c1cn(-c2ccc(C(F)(F)F)cc2)cn1` registered an inhibition in assay [2] of 40%.

As to `O=C(Oc1cncc(Cl)c1)c1ccco1`, the inhibition in assay [2] worked out at 87%.

For `O=C(Oc1ccccn1)c1ccco1`, the inhibition entry in assay [2] was “inactive”.

With `O=C(Oc1cncc(Br)c1)c1ccco1`, in assay [2], the inhibition was determined as 90%. Half-maximal inhibition in assay [3] (IC50) required 80 nM.

Compound `O=C(Oc1cncc(Cl)c1)c1cnc[nH]1` had an IC50 in assay [3] of 290 nM. This lies in the sub-micromolar range.

Turning to `O=C(Oc1cc(Cl)cnc1O)c1ccco1`, the inhibition entry in assay [2] is “inactive”.
